Converted amounts (≈) assume the structure as drawn. “And” between values parts separate entries of the source, which are not always exact repeats. Identical values can stand only once.
Columns and labels:
[1] = test system: caspases 3/7 in MDA-MB-231 cells; experiment: Caspase-Glo 3/7 activity assay; assay type: cell-based; conditions: Homo sapiens, 24 h treatment, 10 concentrations, read-out: Caspase-Glo 3/7 activity assay, MDA-MB-231 cell line, IC50
Protocol: The Caspase-Glo 3/7 activity assay was performed by Reaction Biology Corporation, One Great Valley Parkway, PA. Examined compounds 4c, 4e, 4h, 6d, and 6e were dissolved in DMSO as 20 mM stock and tested for their ability to Caspase-Glo 3/7 activity assay. […] Caspase-Glo 3/7 activity assay reagent was purchased from Promega (Madison, WI). MDA-MB-231 cell line was provided by ATCC. MDA-MB-231 cell line culture conditions: DMEM with 10% FBS. 100 µg/mL penicillin and 100 µg/mL streptomycin were added to the culture media. Cultures were maintained at 37 °C in a humidified atmosphere of 5% CO2 and 95% air.
Caspases are […] that promote apoptosis. Caspases are vital biochemical features of apoptotic signalling. […] To determine whether the cell growth inhibition in response to the benzochromene derivatives was mediated by apoptosis and was caspase dependent, MDA-MB-231 cells were treated with 10 different concentrations of the target compounds for 24 h.

HCT-116 = experiment: MTT viability assay, HCT-116 (human colon cancer); assay type: cell-based; conditions: 24 h incubation, mean ± standard error
Protocol: (§1) Compounds 4a–h and 6a–h were initially evaluated for in vitro antitumour activity against three different human cell lines: MCF-7, HCT-116, and HepG-2, and only the representative active cytotoxic compounds were further evaluated against the normal HFL-1 cell line. The in vitro cytotoxicity evaluation was performed at the Regional Center for Mycology & Biotechnology (RCMP), Al-Azhar University under different concentrations (50, 25, 12.5, 6.25, 3.125, 1.56, and 0 µg/mL); Vinblastine and Doxorubicin are used as reference cytotoxic compounds. The measurements of cell growth and the in vitro cytotoxicity evaluation were determined using viability assay as described in literature[31–33] and the result was cited in Table 1 and Figure 2.
(§2) The in vitro cytotoxic evaluation of the prepared compounds 4a–h and 6a–h was performed against MCF-7 (breast cancer), HCT-116 (human colon cancer), HepG-2 (liver cancer), and HFL-1(normal fibroblast lung) using the 3-(4,5-dimethylthiazol-2-yl)-2,5-diphenyl tetrazolium bromide (MTT) colorimetric assay as described in literature. […] The results were expressed as growth inhibitory concentration (IC50) values, which represent the compounds’ concentrations required to produce a 50% inhibition of the cell growth after 24 h of incubation, compared to the untreated controls as shown in Table 1 and Figure 2.

MCF-7 = experiment: MTT viability assay, MCF-7 (breast cancer); assay type: cell-based; conditions: Homo sapiens, MCF7, 24 h incubation, mean ± standard error
Protocol: as §1, §2

HepG-2 = experiment: MTT viability assay, HepG-2 (liver cancer); assay type: cell-based; conditions: Homo sapiens, HepG2, 24 h incubation, mean ± standard error
Protocol: as §1, §2

HFL-1 = experiment: MTT viability assay, HFL-1 (normal fibroblast lung); assay type: cell-based; conditions: Homo sapiens, HFL1, 24 h incubation, normal cell line, mean ± standard error
Protocol: as §1, §2

c-Src kinase = molecular target: T1, c-Src kinase (Homo sapiens, UniProt P12931); experiment: c-Src kinase assay (HTScan Src Kinase Assay Kit); assay type: biochemical; conditions: GST-Src kinase, triplicate; read-out: Inhibition of c-Src kinase activity, IC50
T1 construct: purchased Cell Signaling Technology (Danvers, MA) 7776
T1 sequence (P12931 whole entry): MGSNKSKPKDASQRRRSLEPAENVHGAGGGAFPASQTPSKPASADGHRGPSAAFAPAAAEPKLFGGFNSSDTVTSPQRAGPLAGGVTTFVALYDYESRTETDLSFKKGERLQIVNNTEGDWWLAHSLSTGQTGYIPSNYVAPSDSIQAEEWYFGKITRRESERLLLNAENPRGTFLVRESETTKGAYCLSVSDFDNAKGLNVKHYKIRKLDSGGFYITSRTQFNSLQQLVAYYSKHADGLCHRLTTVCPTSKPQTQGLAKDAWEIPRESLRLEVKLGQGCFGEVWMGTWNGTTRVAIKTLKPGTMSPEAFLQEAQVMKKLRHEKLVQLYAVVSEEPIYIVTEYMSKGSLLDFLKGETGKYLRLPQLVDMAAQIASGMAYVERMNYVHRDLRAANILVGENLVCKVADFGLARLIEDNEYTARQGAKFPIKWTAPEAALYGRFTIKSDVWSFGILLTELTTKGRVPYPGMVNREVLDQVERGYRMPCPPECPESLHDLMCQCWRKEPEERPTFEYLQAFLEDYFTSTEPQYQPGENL
Protocol: Streptavidin-coated plates were purchased from Pierce (Rockford, IL). […] The reaction mixture was incubated for 30 min at room temperature. The kinase reaction was stopped with the addition of 50 µL of 50 mM EDTA (pH 8.0). […] At the end of the incubation, the wells were washed three times with 200 µL of 0.05% Tween-20 in PBS buffer (PBS/T). After that to each well was added 100 µL of phosphotyrosine antibody (P-Tyr-100) (1:1000 dilution in PBS/T with 1% BSA) and the wells were incubated for another 60 min. After washing three times with 0.05% Tween-20 in PBS/T, the wells were incubated with 100 µL secondary anti-mouse IgG antibody, which was HRP-conjugated (1:500 dilution in PBS/T with 1% BSA) for next 30 min at room temperature. The wells were washed five times with 0.05% Tween-20 in PBS and then were incubated with 100 µL of 3,3′,5,5′-tetramethylbenzidine dihydrochloride substrate for 5 min. […] IC50 values of the compounds were calculated using ORIGIN 6.0 (Origin Lab Corporation, Northampton, MA) software. […] All the experiments were carried out in triplicate.

| IC50 [1] | IC50 (HCT-116) | IC50 (MCF-7) | IC50 (HepG-2) | melting point | IC50 (c-Src kinase) | Structure (SMILES) | IC50 (HFL-1) |
| --- | --- | --- | --- | --- | --- | --- | --- |
|  | 13.9 ± 0.3 µg/mL (≈ 35.8 µM) | 41.1 ± 0.25 µg/mL (≈ 106 µM) | 30.7 ± 0.5 µg/mL (≈ 79 µM) | 200 to 201 °C |  | COc1ccc2c3c(ccc2c1)OC(N)=C(C#N)C3c1ccc(OC)c(OC)c1 (stereo not drawn) [Compound 6h, 3-Amino-1-(3,4-dimethoxyphenyl)-8-methoxy-1H-benzo[f]chromene-2-carbonitrile] |  |
|  | 2.1 ± 0.23 µg/mL (≈ 6.4 µM) | 2.7 ± 0.2 µg/mL (≈ 8.22 µM) | 11.2 ± 0.18 µg/mL (≈ 34.1 µM) | 237 to 238 °C |  | COc1ccc2c3c(ccc2c1)OC(N)=C(C#N)C3c1ccccc1 (stereo not drawn) [Compound 6a, 3-Amino-1-phenyl-8-methoxy-1H-benzo[f]chromene-2-carbonitrile] |  |
| 25600 nM | 0.9 ± 0.58 µg/mL (≈ 2.21 µM) | 2 ± 0.25 µg/mL (≈ 4.91 µM) | 0.7 ± 0.13 µg/mL (≈ 1.72 µM) | 261 to 262 °C | 214 to 329 nM and 329 nM | COc1ccc2c3c(ccc2c1)OC(N)=C(C#N)C3c1ccc(Br)cc1 (stereo not drawn) [Compound 6d, 3-Amino-1-(4-bromophenyl)-8-methoxy-1H-benzo[f]chromene-2-carbonitrile] | 35.5 ± 0.22 µg/mL (≈ 87.2 µM) |
|  | 10.9 ± 0.5 µg/mL (≈ 28.1 µM) | 16 ± 0.92 µg/mL (≈ 41.2 µM) | 9 ± 0.3 µg/mL (≈ 23.2 µM) | 210 to 211 °C |  | COc1ccc(C2C(C#N)=C(N)Oc3ccc4cc(OC)ccc4c32)c(OC)c1 (stereo not drawn) [Compound 6g, 3-Amino-1-(2,4-dimethoxyphenyl)-8-methoxy-1H-benzo[f]chromene-2-carbonitrile] |  |
|  | 2.5 ± 0.97 µg/mL (≈ 6.89 µM) | 3.1 ± 0.29 µg/mL (≈ 8.54 µM) | 0.3 ± 0.08 µg/mL (≈ 0.827 µM) | 247 to 248 °C |  | COc1ccc2c3c(ccc2c1)OC(N)=C(C#N)C3c1ccc(Cl)cc1 (stereo not drawn) [Compound 6c, 3-Amino-1-(4-chlorophenyl)-8-methoxy-1H-benzo[f]chromene-2-carbonitrile] |  |
|  | 3.8 ± 0.14 µg/mL (≈ 10.6 µM) | 0.6 ± 0.08 µg/mL (≈ 1.67 µM) | 29.3 ± 0.12 µg/mL (≈ 81.8 µM) | 222 to 223 °C |  | COc1ccc(C2C(C#N)=C(N)Oc3ccc4cc(OC)ccc4c32)cc1 (stereo not drawn) [Compound 6f, 3-Amino-8-methoxy-1-(4-methoxyphenyl)-1H-benzo[f]chromene-2-carbonitrile] |  |
|  | 4.9 ± 0.01 µg/mL (≈ 14.1 µM) | 4.4 ± 0.05 µg/mL (≈ 12.7 µM) | 0.5 ± 0.01 µg/mL (≈ 1.44 µM) | 256 to 257 °C |  | COc1ccc2c3c(ccc2c1)OC(N)=C(C#N)C3c1ccc(F)cc1 (stereo not drawn) [Compound 6b, 3-Amino-1-(4-flourophenyl)-8-methoxy-1H-benzo[f]chromene-2-carbonitrile] |  |

More lines, now with the values behind:

| Structure (SMILES) | IC50 [1] | IC50 (HCT-116) | IC50 (MCF-7) | IC50 (HepG-2) | melting point | IC50 (c-Src kinase) | IC50 (HFL-1) |
| --- | --- | --- | --- | --- | --- | --- | --- |
| CN[C@@H]1C[C@H]2O[C@@](C)([C@@H]1OC)n1c3ccccc3c3c4c(c5c6ccccc6n2c5c31)C(=O)NC4 [Staurosporine, staurosporine, reference compound] | 68.5 nM |  |  |  |  |  |  |
| COc1cccc2c1C(=O)c1c(O)c3c(c(O)c1C2=O)C[C@@](O)(C(=O)CO)C[C@@H]3O[C@H]1C[C@H](N)[C@H](O)[C@H](C)O1 [Doxorubicin, reference compound] |  | 0.5 ± 0.015 µg/mL (≈ 0.92 µM) | 0.4 ± 0.01 µg/mL (≈ 0.736 µM) | 0.9 ± 0.04 µg/mL (≈ 1.66 µM) |  |  |  |
| N#CC1=C(N)Oc2ccc3cc(Br)ccc3c2C1c1ccc(Br)cc1 (stereo not drawn) [Compound 4d, 3-Amino-8-bromo-1-(4-bromophenyl)-1H-benzo[f]chromene-2-carbonitrile] |  | 0.5 ± 0.35 µg/mL (≈ 1.1 µM) | 2.5 ± 0.14 µg/mL (≈ 5.48 µM) | 1.8 ± 0.2 µg/mL (≈ 3.95 µM) | 250 to 251 °C |  |  |
| COc1ccc(C2C(C#N)=C(N)Oc3ccc4cc(Br)ccc4c32)cc1 (stereo not drawn) [Compound 4f, 3-Amino-8-bromo-1-(4-methoxyphenyl)-1H-benzo[f]chromene-2-carbonitrile] |  | 44.9 ± 0.14 µg/mL (≈ 110 µM) | 3.8 ± 0.36 µg/mL (≈ 9.33 µM) | 4.4 ± 0.05 µg/mL (≈ 10.8 µM) | 234 to 235 °C |  |  |
| COc1ccc(C2C(C#N)=C(N)Oc3ccc4cc(Br)ccc4c32)c(OC)c1 (stereo not drawn) [Compound 4g, 3-Amino-8-bromo-1-(2,4-dimethoxyphenyl)-1H-benzo[f]chromene-2-carbonitrile] |  | 3.7 ± 0.15 µg/mL (≈ 8.46 µM) | 3.6 ± 0.01 µg/mL (≈ 8.23 µM) | 2.8 ± 0.17 µg/mL (≈ 6.4 µM) | 220 to 221 °C |  |  |
| CC[C@]1(O)C[C@@H]2CN(CCc3c([nH]c4ccccc34)[C@@](C(=O)OC)(c3cc4c(cc3OC)N(C)[C@H]3[C@@](O)(C(=O)OC)[C@H](OC(C)=O)[C@]5(CC)C=CCN6CC[C@]43[C@@H]65)C2)C1 [Vinblastine, reference compound] |  | 2.6 ± 0.08 µg/mL (≈ 3.21 µM) | 6.1 ± 0.03 µg/mL (≈ 7.52 µM) | 4.6 ± 0.01 µg/mL (≈ 5.67 µM) |  |  |  |
| N#CC1=C(N)Oc2ccc3cc(Br)ccc3c2C1c1ccccc1 (stereo not drawn) [Compound 4a, 3-Amino-8-bromo-1-phenyl-1H-benzo[f]chromene-2-carbonitrile] |  | 1.2 ± 0.97 µg/mL (≈ 3.18 µM) | 0.9 ± 0.29 µg/mL (≈ 2.39 µM) | 0.7 ± 0.5 µg/mL (≈ 1.86 µM) | 245 to 246 °C |  |  |
| N#CC1=C(N)Oc2ccc3cc(Br)ccc3c2C1c1ccc(F)cc1 (stereo not drawn) [Compound 4b, 3-Amino-8-bromo-1-(4-fluorophenyl)-1H-benzo[f]chromene-2-carbonitrile] |  | 1 ± 0.12 µg/mL (≈ 2.53 µM) | 5.2 ± 0.03 µg/mL (≈ 13.2 µM) | 0.8 ± 0.12 µg/mL (≈ 2.02 µM) | 242 to 243 °C |  |  |
| COc1ccc(C2C(C#N)=C(N)Oc3ccc4cc(Br)ccc4c32)cc1OC (stereo not drawn) [Compound 4h, 3-Amino-8-bromo-1-(3,4-dimethoxyphenyl)-1H-benzo[f]chromene-2-carbonitrile] | 31500 nM | 4.1 ± 0.16 µg/mL (≈ 9.38 µM) | 0.66 ± 0.04 µg/mL (≈ 1.51 µM) | 11 ± 0.02 µg/mL (≈ 25.2 µM) | 200 to 201 °C | 214 to 329 nM and 214 nM | 12.9 ± 0.13 µg/mL (≈ 29.5 µM) |
| Cc1ccc(C2C(C#N)=C(N)Oc3ccc4cc(Br)ccc4c32)cc1 (stereo not drawn) [Compound 4e, 3-Amino-8-bromo-1-(4-methylphenyl)-1H-benzo[f]chromene-2-carbonitrile] | 19500 nM | 0.7 ± 0.25 µg/mL (≈ 1.79 µM) | 2.5 ± 0.18 µg/mL (≈ 6.39 µM) | 0.9 µg/mL (≈ 2.3 µM) | 215 to 216 °C | 9 nM | 22.4 ± 0.21 µg/mL (≈ 57.2 µM) |

Reference: article PMC6022228, “Introducing novel potent anticancer agents of 1H-benzo[f]chromene scaffolds, targeting c-Src kinase enzyme with MDA-MB-231 cell line anti-invasion effect” (Journal of Enzyme Inhibition and Medicinal Chemistry, 2018)
